Experimental data published in US8207172B2 (Bayer Intellectual Property GmbH, priority 2004, dated 2012).
pIC50: −log10 of the molar value. Where a name gives a salt, the structure may show the parent alone.

Legend:
[1] = system: A431 cells (human epidermoid carcinoma); experiment: In vitro tumor cell proliferation assay (Cell Titer-Glo luminescent cell viability), A431; type: cell-based; settings: A-431, 72 h, 72 hours of drug exposure, ATP luminescence readout, read-out: IC50, anti-proliferative activity (inhibition of cell proliferation)
How it was run: (§1)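 Seeding density 2.5×10^3 cells/well; 72 h drug exposure at 37° C; endpoint CellTiter-Glo luminescence, reported as IC50.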

[2] = system: BT474 (human breast carcinoma); experiment: In vitro tumor cell proliferation assay (Cell Titer-Glo luminescent cell viability), BT474; type: cell-based; settings: BT-474, 72 h, BT474 cells, 72 hours of drug exposure, ATP luminescence readout, read-out: IC50, anti-proliferative activity (inhibition of cell proliferation)
How it was run: as §1

Compound	pIC50 [1]	pIC50 [2]
Fc1cccc(COc2ccc(Nc3ncnc4sc5c(c34)CCc3nn(C4CCNCC4)cc3-5)cc2Cl)c1 [Example 217, N-{3-chloro-4-[(3-fluorobenzyl)oxy]phenyl}-2-piperidin-4-yl-4,5-dihydro-2H-pyrimido[5′,4′:4,5]thieno[2,3-e]indazol-6-amine]	≥ 5.30	≥ 6.00
O=C(CCl)N1CCC(n2cc3c(n2)CCc2c-3sc3ncnc(Nc4ccc(OCc5cccc(F)c5)c(Cl)c4)c23)CC1 [Example 218, 2-[1-(chloroacetyl)piperidin-4-yl]-N-{3-chloro-4-[(3-fluorobenzyl)oxy]phenyl}-4,5-dihydro-2H-pyrimido[5′,4′:4,5]thieno[2,3-e]indazol-6-amine]	≥ 4.30	≥ 6.00
CN(C)[C@@H]1CCN(CC(=O)N2CCC(n3cc4c(n3)CCc3c-4sc4ncnc(Nc5ccc(OCc6cccc(F)c6)c(Cl)c5)c34)CC2)C1 [Example 219, N-{3-chloro-4-[(3-fluorobenzyl)oxy]phenyl}-2-(1-{[(3R)-3-(dimethylamino)pyrrolidin-1-yl]acetyl}piperidin-4-yl)-4,5-dihydro-2H-pyrimido[5′,4′:4,5]thieno[2,3-e]indazol-6-amine]	≥ 5.30	≥ 6.00
O=C(CN1CCNCC1)N1CCC(n2cc3c(n2)CCc2c-3sc3ncnc(Nc4ccc(OCc5cccc(F)c5)c(Cl)c4)c23)CC1 [Example 221, N-{3-chloro-4-[(3-fluorobenzyl)oxy]phenyl}-2-[1-(piperazin-1-ylacetyl)piperidin-4-yl]-4,5-dihydro-2H-pyrimido[5′,4′:4,5]thieno[2,3-e]indazol-6-amine]	≥ 4.30	≥ 6.00
O=C(CN1CCOCC1)N1CCC(n2cc3c(n2)CCc2c-3sc3ncnc(Nc4ccc(OCc5cccc(F)c5)c(Cl)c4)c23)CC1 [Example 222, N-{3-chloro-4-[(3-fluorobenzyl)oxy]phenyl}-2-[1-(morpholin-4-ylacetyl)piperidin-4-yl]-4,5-dihydro-2H-pyrimido[5′,4′:4,5]thieno[2,3-e]indazol-6-amine]	≥ 5.30	≥ 6.00
CN(C)[C@H]1CCN(CC(=O)N2CCC(n3cc4c(n3)CCc3c-4sc4ncnc(Nc5ccc(OCc6cccc(F)c6)c(Cl)c5)c34)CC2)C1 [Example 223, N-{3-chloro-4-[(3-fluorobenzyl)oxy)phenyl}-2-(1-{[(3S)-3-(dimethylamino)pyrrolidin-1-yl]acetyl}piperidin-4-yl)-4,5-dihydro-2H-pyrimido[5′,4′:4,5]thieno[2,3-e]indazol-6-amine]	≥ 5.30	≥ 6.00
CN1CCN(CC(=O)N2CCC(n3cc4c(n3)CCc3c-4sc4ncnc(Nc5ccc(OCc6cccc(F)c6)c(Cl)c5)c34)CC2)CC1 [Example 224, N-{3-chloro-4-[(3-fluorobenzyl)oxy]phenyl}-2-{1-[(4-methylpiperazin-1-yl)acetyl]piperidin-4-yl}-4,5-dihydro-2H-pyrimido[5′,4′:4,5]thieno[2,3-e]indazol-6-amine]	≥ 5.30	≥ 6.00
C[N+]1(C)CCC(n2cc3c(n2)CCc2c-3sc3ncnc(Nc4ccc(OCc5cccc(F)c5)c(Cl)c4)c23)CC1 [Example 225, 4-[6-({3-chloro-4-[(3-fluorobenzyl)oxy]phenyl}amino)-4,5-dihydro-2H-pyrimido[5′,4′:4,5]thieno[2,3-e]indazol-2-yl]-1,1-dimethylpiperidinium trifluoroacetate]	≥ 4.30	≥ 5.30
CC[N+]1(CC)CCC(n2cc3c(n2)CCc2c-3sc3ncnc(Nc4ccc(OCc5cccc(F)c5)c(Cl)c4)c23)CC1 [Example 226, 4-[6-({3-chloro-4-[(3-fluorobenzyl)oxy]phenyl}amino)-4,5-dihydro-2H-pyrimido[5′,4′:4,5]thieno[2,3-e]indazol-2-yl]-1,1-diethylpiperidinium trifluoroacetate]	≥ 5.30	≥ 6.00
CC(C)N1CCC(n2cc3c(n2)CCc2c-3sc3ncnc(Nc4ccc(OCc5cccc(F)c5)c(Cl)c4)c23)CC1 [Example 227, N-{3-chloro-4-[(3-fluorobenzyl)oxy]phenyl}-2-(1-isopropylpiperidin-4-yl)-4,5-dihydro-2H-pyrimido[5′,4′:4,5]thieno[2,3-e]indazol-6-amine]	≥ 5.30	≥ 6.00
CN1CCC(n2cc3c(n2)CCc2c-3sc3ncnc(Nc4ccc(OCc5cccc(F)c5)c(Cl)c4)c23)CC1 [Example 228, N-{3-chloro-4-[(3-fluorobenzyl)oxy]phenyl}-2-(1-methylpiperidin-4-yl)-4,5-dihydro-2H-pyrimido[5′,4′:4,5]thieno[2,3-e]indazol-6-amine]	≥ 5.30	≥ 6.00
CCCN1CCC(n2cc3c(n2)CCc2c-3sc3ncnc(Nc4ccc(OCc5cccc(F)c5)c(Cl)c4)c23)CC1 [Example 229, N-{3-chloro-4-[(3-fluorobenzyl)oxy]phenyl}-2-(1-propylpiperidin-4-yl)-4,5-dihydro-2H-pyrimido[5′,4′:4,5]thieno[2,3-e]indazol-6-amine]	≥ 5.30	≥ 6.00
CCN1CCC(n2cc3c(n2)CCc2c-3sc3ncnc(Nc4ccc(OCc5cccc(F)c5)c(Cl)c4)c23)CC1 [Example 230, N-{3-chloro-4-[(3-fluorobenzyl)oxy]phenyl}-2-(1-ethylpiperidin-4-yl)-4,5-dihydro-2H-pyrimido[5′,4′:4,5]thieno[2,3-e]indazol-6-amine]	≥ 5.30	≥ 6.00
Fc1cccc(COc2ccc(Nc3ncnc4sc5c(c34)CCc3nn(CC4CCNCC4)cc3-5)cc2Cl)c1 [Example 232, N-{3-chloro-4-[(3-fluorobenzyl)oxy]phenyl}-2-(piperidin-4-ylmethyl)-4,5-dihydro-2H-pyrimido[5′,4′:4,5]thieno[2,3-e]indazol-6-amine]	≥ 5.30	≥ 6.00
CN1CCN(CC(=O)N2CCC(Cn3cc4c(n3)CCc3c-4sc4ncnc(Nc5ccc(OCc6cccc(F)c6)c(Cl)c5)c34)CC2)CC1 [Example 237]	≥ 5.30	≥ 6.00

Now from value to compound:

pIC50 [1]	pIC50 [2]	Compound
≥ 5.30	≥ 6.00	CCN(CC)CC(=O)N1CCC(n2cc3c(n2)CCc2c-3sc3ncnc(Nc4ccc(OCc5cccc(F)c5)c(Cl)c4)c23)CC1 [Example 220, N-{3-chloro-4-[(3-fluorobenzyl)oxy]phenyl}-2-{1-[(diethylamino)acetyl]piperidin-4-yl}-4,5-dihydro-2H-pyrimido[5′,4′:4,5]thieno[2,3-e]indazol-6-amine]
≥ 4.30	≥ 5.30	CC(C)(C)OC(=O)N1CCC(Cn2cc3c(n2)CCc2c-3sc3ncnc(Nc4ccc(OCc5cccc(F)c5)c(Cl)c4)c23)CC1 [Example 231, tert-butyl 4-{[6-({3-chloro-4-[(3-fluorobenzyl)oxy]phenyl}amino)-4,5-dihydro-2H-pyrimido[5′,4′:4,5]thieno[2,3-e]indazol-2-yl]methyl}piperidine-1-carboxylate]
≥ 4.30	≥ 5.30	CN(C)[C@@H]1CCN(CC(=O)N2CCC(Cn3cc4c(n3)CCc3c-4sc4ncnc(Nc5ccc(OCc6cccc(F)c6)c(Cl)c5)c34)CC2)C1 [Example 234, N-{3-chloro-4-[(3-fluorobenzyl)oxy]phenyl}-2-[(1-{[(3R)-3-(dimethylamino)pyrrolidin-1-yl]acetyl}piperidin-4-yl)methyl]-4,5-dihydro-2H-pyrimido[5′,4′:4,5]thieno[2,3-e]indazol-6-amine trifluoroacetate]
≥ 5.30	≥ 6.00	CN(C)[C@H]1CCN(CC(=O)N2CCC(Cn3cc4c(n3)CCc3c-4sc4ncnc(Nc5ccc(OCc6cccc(F)c6)c(Cl)c5)c34)CC2)C1 [Example 235, N-{3-chloro-4-[(3-fluorobenzyl)oxy]phenyl}-2-[(1-{[(3S)-3-(dimethylamino)pyrrolidin-1-yl]acetyl}piperidin-4-yl)methyl]-4,5-dihydro-2H-pyrimido[5′,4′:4,5]thieno[2,3-e]indazol-6-amine]
≥ 5.30	≥ 6.00	CN1CCC(Cn2cc3c(n2)CCc2c-3sc3ncnc(Nc4ccc(OCc5cccc(F)c5)c(Cl)c4)c23)CC1 [Example 236, N-{3-chloro-4-[(3-fluorobenzyl)oxy]phenyl}-2-[(1-methylpiperidin-4-yl)methyl]-4,5-dihydro-2H-pyrimido[5′,4′:4,5]thieno-[2,3-e]indazol-6-amine]
≥ 5.30	≥ 6.00	O=C(CN1CCOCC1)N1CCC(Cn2cc3c(n2)CCc2c-3sc3ncnc(Nc4ccc(OCc5cccc(F)c5)c(Cl)c4)c23)CC1 [Example 238, N-{3-chloro-4-[(3-fluorobenzyl)oxy]phenyl}-2-{[1-(morpholin-4-ylacetyl)piperidin-4-yl]methyl}-4,5-dihydro-2H-pyrimido[5′,4′:4,5]thieno[2,3-e]indazol-6-amine]
≥ 5.30	≥ 6.00	O=C(CN1CCCC1)N1CCC(Cn2cc3c(n2)CCc2c-3sc3ncnc(Nc4ccc(OCc5cccc(F)c5)c(Cl)c4)c23)CC1 [Example 239, N-{3-chloro-4-[(3-fluorobenzyl)oxy]phenyl}-2-{[1-(pyrrolidin-1-ylacetyl)piperidin-4-yl]methyl}-4,5-dihydro-2H-pyrimido[5′,4′:4,5]thieno[2,3-e]indazol-6-amine]
≥ 5.30	≥ 6.00	O=C(CN(CCO)CCO)N1CCC(Cn2cc3c(n2)CCc2c-3sc3ncnc(Nc4ccc(OCc5cccc(F)c5)c(Cl)c4)c23)CC1 [Example 240, 2,2′-{[2-(4-{[6-({3-chloro-4-[(3-fluorobenzyl)oxy]phenyl}amino)-4,5-dihydro-2H-pyrimido[5′,4′:4,5]thieno[2,3-e]indazol-2-yl]methyl}piperidin-1-yl)-2-oxoethyl]imino}diethanol]
≥ 5.30	≥ 6.00	CN(C)CC(=O)N1CCC(Cn2cc3c(n2)CCc2c-3sc3ncnc(Nc4ccc(OCc5cccc(F)c5)c(Cl)c4)c23)CC1 [Example 241, N-{3-chloro-4-[(3-fluorobenzyl)oxy]phenyl}-2-({1-[(dimethylamino)acetyl]piperidin-4-yl}methyl)-4,5-dihydro-2H-pyrimido[5′,4′:4,5]thieno[2,3-e]indazol-6-amine trifluoroacetate]
